Results on six substances are retold here after patent USRE34480E, “Naphthalocyanine compounds” (Yamamoto Kagaku Gosei Co., Ltd., priority 1983, dated 1993).

Like-named read-outs stand apart in the source and are kept apart here.

One data set in a line: Solubility in toluene. In kind it is physicochemical. Particulars: for Solubility in Toluene: 1 g in 5 ml toluene, ultrasonic shaking 50° C. 10 min, then room temperature 30 min, filtered; for residue (solubility measurement in toluene): residue behind the printed solubility. As for the experimental part: In a 20 ml test tube were placed 1 g of a naphthalocyanine compound and 5 ml of toluene. After the tube was tightly stoppered, the content was subjected to ultrasonic shaking at 50° C. for 10 min. Then, the tube was allowed to stand at room temperature for 30 min. and the content was filtered. The filtrate was concentrated to dryness. The solubility of the naphthalocyanine in toluene was calculated using the following equation. [formula] R1, R2, and R3 and R4 of naphthalocyanine compounds of the present invention can bond to 6 to 7 positions of all naphthalene nuclei of naphthalocyanine. Each of these groups can be a mixed group.

Data set [1] in a line: Near infrared absorption spectrum in toluene (largest absorption peak, absorptivity coefficient). In kind it is physicochemical. From the text: It is to be noted that the naphthalocyanine compounds according to the present invention are not restricted to the compounds shown in Table 2.
Near infrared absorption spectrum for toluene solution: […]

On to “Indium tetra-tert, sec-mixed amylnaphthalocyanine [Example 4]”, for which the “Solubility in Toluene” value in “Solubility in toluene” came to 7%. Also, in data set [1], the “Absorptivity coefficient (log ε)” value is given as 5.09 and the “Wavelength at largest absorption peak” value was found to be 805 nm.

For “copper tetra-tert-amylnaphthalocyanine [Example 2]”, the “Solubility in Toluene” value in “Solubility in toluene” amounted to 7%. Moreover, the “Wavelength at largest absorption peak” value in data set [1] amounted to 771 nm. The “Absorptivity coefficient (log ε)” value in data set [1] (listed as tert-amyl Cu) came out at 5.24.

As for “tetra-6-tert-butylvanadylnaphthalocyanine [reference compound]”, the “Solubility in Toluene” value in the data set “Solubility in toluene” came out at 2%. Moreover, the “Solubility in organic solvents (in words)” value in “Solubility in toluene” (organic solvents, compared with tert-butyl analogue or in general) is on record as “much lower solubility in organic solvents”.

As to “tetra-tert, sec-mixed amylvanadylnaphthalocyanine [Example 3]”, in the data set “Solubility in toluene”, the “Solubility in Toluene” value was 7% and the “residue (solubility measurement in toluene)” value is recorded as 0.6 g. For the same substance, in data set [1], the “Absorptivity coefficient (log ε)” value amounted to 5.32 and the “Wavelength at largest absorption peak” value is recorded as 809 nm.

As to “tetra-tert-amylvanadylnaphthalocyanine [Example 1]”, in the data set “Solubility in toluene”, the “Solubility in Toluene” value was 6% and the “residue (solubility measurement in toluene)” value is listed as 0.6 g. Also, in data set [1], the “Absorptivity coefficient (log ε)” value was found to be 5.37 and the “Wavelength at largest absorption peak” value was found to be 808 nm.

As for “tetra-tert-heptylvanadylnaphthalocyanine [Example 5]”, the “Solubility in Toluene” value in the data set “Solubility in toluene” is on record as 11%. Moreover, in data set [1], the “Absorptivity coefficient (log ε)” value came out at 5.27 and the “Wavelength at largest absorption peak” value worked out at 809 nm.
